Experimental data as given in patent US8815919B2, “Oxadiazole derivatives” (Merck Serono SA, priority 2009, dated 2014).
pEC50: −log10 of the molar value. Counter-ions that a name gives are not always drawn. Like-named read-outs stand apart in the source and are kept apart here.

Columns and labels:
S1P1 [1] = target: T1, S1P1 (Homo sapiens, UniProt P21453); test: Receptor binding assay, [33P]sphingosine 1-phosphate competition, S1P1 membranes, WGA SPA beads
Method: (§1) Membranes were prepared from CHO cells expressing S1P1 or S1P3 for use in ligand and […] binding studies. Cells were suspended in 50 mM TRIS, pH 7.4, 2 mM EDTA, 250 mM Sucrose (buffer A) and 1× Complete protease inhibitor cocktail (Roche), and disrupted at 4° C. by N2 decompression using a cell disruption bomb (Parr Instrument). Following centrifugation at 1000 RPM for 10 min at 4° C., the supernatant was diluted (2×) in buffer A and centrifuged again at 19000 RPM for 75 min at 4° C. The pellet was then suspended in 10 mM HEPES, pH 7.4, 1 mM EDTA, 250 mM Sucrose (Buffer B), and 1× Complete EDTA-free protease inhibitor cocktail and homogenized using a potter. Membranes were flash frozen in liquid N2 and stored at −80° C.
(§2) Receptor binding assay: [33P]sphingosine 1-phosphate (3000 Ci/mmol; American Radiolabeled Chemicals, Inc.) was added to test compounds in 20% DMSO by competition. Membranes and WGA SPA beads (GE Healthcare) were added to give a final volume of 100 μl in 96-well plates or 50 μl in 384-well plates with assay concentrations of […] [33P]sphingosine 1-phosphate (respectively for S1P1 or S1P3), 50 mM HEPES, pH 7.5, 5 mM MgCl2, 100 mM NaCl, 0.4% fatty acid-free BSA, 1-5 μg/well of proteins in 96-well plates vs 0.6-1 μg/well of proteins in 384-well plates and 100 μg/well of WGA SPA beads in 96-well plates vs 75 μg/well of WGA SPA beads in 384-well plates. Binding was performed for 60 min at RT on a shaker and bound radioactivity was measured on a PerkinElmer 1450 MicroBeta counter. Triplicate samples were averaged and normalized as percentage of inhibition relative to total binding (only DMSO in well) and nonspecific binding (1000-fold excess of unlabeled S1P). Binding data were analyzed using the GraphPad Prism program or Genedata software.
Target sequence in this assay (P21453 whole entry, species assumed): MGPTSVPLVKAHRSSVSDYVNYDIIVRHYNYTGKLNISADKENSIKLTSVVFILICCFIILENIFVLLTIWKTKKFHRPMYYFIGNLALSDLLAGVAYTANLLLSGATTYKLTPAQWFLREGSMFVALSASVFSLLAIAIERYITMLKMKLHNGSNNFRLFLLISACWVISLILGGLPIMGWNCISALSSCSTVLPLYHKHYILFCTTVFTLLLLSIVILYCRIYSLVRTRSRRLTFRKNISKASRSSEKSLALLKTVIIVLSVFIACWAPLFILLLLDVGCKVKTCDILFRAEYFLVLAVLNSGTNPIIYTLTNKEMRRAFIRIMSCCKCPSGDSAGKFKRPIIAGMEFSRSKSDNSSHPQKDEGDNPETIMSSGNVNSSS

S1P3 = S1P3 (Homo sapiens, UniProt Q99500); test: Receptor binding assay, [33P]sphingosine 1-phosphate competition, S1P3 membranes, WGA SPA beads
Method: as §1, §2

S1P1 [2] = target: T1, S1P1; test: S1P1 internalization assay in S1P1-U2OS cells (S1P1-EGFP), cell imaging; assay type: cell-based; set-up: host or cells: U2OS (human bone osteosarcoma epithelial cells), CMV promoter, geneticin selection; details: 1 hour incubation
Method: Cellular functional assays: Internalization of Sphingosine-1-phosphate receptor 1 (S1P1) in a human Cell line (U2OS) in a 384-well format using a Cell Imaging analysis. • Jo, E.; Sanna, M. G.; Gonzalez-Cabrera, P. J.; Thangada, S.; Tigyi, S.; Osborne, D. A.; Hla, T.; Parrill, A. L.; Rosen, H. Chem. Biol. 2005, 12, 703
The S1P1 internalization assay was performed in 384 well plates (Corning® 384 black with clear bottom 3712) using S1P1-U2OS cells from Biolmage (C039A), a human epithelial cell line (Human Bone Osteosarcoma Epithelial Cells). These cells expressed the human S1P1 Receptor fused to the green fluorescent protein (EGFP). A standard CMV promoter (cytomegalovirus promoter) controls the expression of S1P1-EGFP and continuous expression was maintained by addition of geneticin to the culture medium.
S1P1 Receptor desensitization induced the internalization of the membrane-localized S1P1-EGFP fusion protein to endosomes, which can be monitored by cell imaging analysis. The cells are plated in low serum medium (Dulbecco's Modified Eagle Medium (DMEM) with Glutamax-1 and high glucose, 1% Penicillin/Streptomycin, 1% Fetal Calf Serum (FCS), 0.5 mg/ml Geneticin) overnight.
The next day, S1P1-U2OS cells are incubated in 20 μl serum free medium (DMEM with Glutamax-1 and high glucose, 0.1% of fatty-acid free Bovin Serum Albumin (BSA), 10 mM, N′-2-Hydroxyethylpiperazine-N′-2 ethanesulphonic acid (HEPES) 1M) for 2 hours at 37° C./5% CO2. The cells are then treated with 4 μl compounds/agonists (6×/3% DMSO) for a total volume of 24 μl, and plates are incubated for 1 hour at 37° C./5% CO2.
S1P1-U2OS cells are fixed with 25 μl Paraformaldehyde 8% and stained with Hoechst 33345 dye (1:1000) for 20 minutes.
They were then washed 3 times with Phosphate Buffered Saline (PBS) and plates are sealed. The internalization of the receptor S1P1-EGFP is measured on Cellomics by calculating the “spot count per object” (“object” corresponds to nuclear and “spot” corresponds to S1P1-EGFP receptor). Internalization data were observed thanks to vHCS View and analyzed using Genedata® software.
Target sequence in this assay (P21453 whole entry): as the sequence (P21453 whole entry, species assumed) above

[3] = 96 well-plate, read-out: S1P1 binding Ki (M) (96 well-plate)
[4] = 96 well-plate, read-out: S1P3 binding Ki (M) (96 well-plate)
[5] = 384 well-plate, read-out: S1P1 binding Ki (M) (384 well-plate)
[6] = 384 well-plate, read-out: S1P3 binding Ki (M) (384 well-plate)

S1P3, sequence (Q99500 whole entry, species assumed): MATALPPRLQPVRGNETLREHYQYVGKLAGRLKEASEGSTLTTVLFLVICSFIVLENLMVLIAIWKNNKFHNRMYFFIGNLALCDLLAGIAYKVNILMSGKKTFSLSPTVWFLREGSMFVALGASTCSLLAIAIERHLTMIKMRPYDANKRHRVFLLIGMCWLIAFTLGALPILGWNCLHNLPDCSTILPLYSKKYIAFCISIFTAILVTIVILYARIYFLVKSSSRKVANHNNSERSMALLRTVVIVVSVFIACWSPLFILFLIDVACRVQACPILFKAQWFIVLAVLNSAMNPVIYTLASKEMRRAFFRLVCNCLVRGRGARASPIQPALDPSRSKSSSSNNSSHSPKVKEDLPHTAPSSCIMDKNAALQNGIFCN

SMILES | Ki (S1P1 [1]; [3]) [M] | Ki (S1P3; [4]) [M] | pEC50 (S1P1 [2]) | Ki (S1P1 [1]; [5]) [M] | Ki (S1P3; [6]) [M]
COCc1cc(-c2nc(-c3cc(F)cc(CN(C)CC(=O)O)c3)no2)ccc1-c1ccccc1 [Example 76] | 1.81e-10 | 1.09e-08 | 8.27 |  | 
CCCN(CC(=O)O)Cc1cccc(-c2noc(-c3ccc(-c4ccccc4C)c(COC)c3)n2)c1 [Example 77, N-(3-{5-[2-(methoxymethyl)-2′-methylbiphenyl-4-yl]-1,2,4-oxadiazol-3-yl}benzyl)-N-propylglycine, hydrochloride salt] | 1.58e-09 | 6.05e-07 | 7.28 | 9.83e-10 | 
CCN(CC(=O)O)Cc1cccc(-c2noc(-c3ccc(-c4ccccc4C)c(COC)c3)n2)c1 [Example 78, N-ethyl-N-(3-{5-[2-(methoxymethyl)-2′-methylbiphenyl-4-yl]-1,2,4-oxadiazol-3-yl}benzyl)glycine, hydrochloride salt] | 4.41e-10 | 1.5e-07 | 7.46 | 2.47e-09 | 3.54e-07
COCc1cc(-c2nc(-c3ccc(CN(C)CC(=O)O)c(OC)c3)no2)ccc1-c1ccccc1C [Example 79, 2-((2-methoxy-4-(5-(2-(methoxymethyl)-2′-methylbiphenyl-4-yl)-1,2,4-oxadiazol-3-yl)benzyl)(methyl)amino)acetic acid, hydrochloride salt] | 2.69e-09 | 4.84e-06 | 7.32 | 5.33e-09 | 
COc1cc(-c2noc(-c3ccc(N4CCCCC4C)c(C(F)(F)F)c3)n2)ccc1CN(C)CC(=O)O (stereo not drawn) [Example 80, 2-((2-methoxy-4-(5-(4-(2-methylpiperidin-1-yl)-3-(trifluoromethyl)phenyl)-1,2,4-oxadiazol-3-yl)benzyl)(methyl)amino)acetic acid, hydrochloride salt] | 1.6e-09 | 2.79e-06 | 7.33 | 3.12e-09 | 
COCc1cc(-c2nc(-c3ccc(CNCC(=O)O)c(F)c3)no2)ccc1-c1ccccc1F [Example 82, N-(2-fluoro-4-{5-[2′-fluoro-2-(methoxymethyl)biphenyl-4-yl]-1,2,4-oxadiazol-3-yl}benzyl)glycine, hydrochloride salt] | 5.42e-11 | 4.66e-08 | 8.76 | 3.74e-10 | 5.24e-08
COCc1cc(-c2nc(-c3ccc(CNCC(=O)O)c(F)c3)no2)ccc1-c1ccccc1C [Example 83, N-(2-fluoro-4-{5-[2-(methoxymethyl)-2′-methylbiphenyl-4-yl]-1,2,4-oxadiazol-3-yl}benzyl)glycine, hydrochloride salt] | 7.39e-11 | 1.01e-07 | 8.92 | 1.8e-10 | 2.75e-07
Cc1ccccc1-c1ccc(-c2nc(-c3ccc(CNCCC(=O)O)cc3)no2)cc1C(F)(F)F [Example 84] | 1.43e-10 | 1.56e-07 | 8.81 | 3.77e-10 | 1.73e-07
CC1CCCCN1c1ccc(-c2nc(-c3ccc(CN(C)CC(=O)O)c(F)c3)no2)cc1C(F)(F)F (stereo not drawn) [Example 85, N-(2-fluoro-4-{5-[4-(2-methylpiperidin-1-yl)-3-(trifluoromethyl)phenyl]-1,2,4-oxadiazol-3-yl}benzyl)-N-methylglycine, dihydrochloride salt] | 3.16e-10 | 1.77e-07 | 7.87 | 9.74e-10 | 
COCc1cc(-c2nc(-c3cccc(CCN(C)CC(=O)O)c3)no2)ccc1-c1ccccc1C [Example 86, [(2-{3-[5-(2-Methoxymethyl-2′-methyl-biphenyl-4-yl)-[1,2,4]oxadiazol-3-yl]-phenyl}-ethyl)-methyl-amino]-acetic acid] | 1.46e-10 | 3.18e-08 | 8.30 | 4.97e-10 | 
COCc1cc(-c2nc(-c3ccc(CCN(C)CC(=O)O)cc3)no2)ccc1-c1ccccc1C [Example 87, [(2-{4-[5-(2-Methoxymethyl-2′-methyl-biphenyl-4-yl)-[1,2,4]oxadiazol-3-yl]-phenyl}-ethyl)-methyl-amino]-acetic acid] | 4.23e-10 | 4.2e-07 | 7.87 | 9.45e-10 | 3.85e-07
COCc1cc(-c2nc(-c3ccc(CN(C)CC(=O)O)cc3)no2)ccc1-c1cccc(F)c1C [Example 90, N-(4-{5-[3′-fluoro-2-(methoxymethyl)-2′-methylbiphenyl-4-yl]-1,2,4-oxadiazol-3-yl}benzyl)-N-methylglycine, hydrochloride salt] | 2.78e-10 | 5.45e-07 | 8.35 | 8.65e-10 | 8.49e-07
COCc1cc(-c2nc(-c3ccc(CN(C)CC(=O)O)c(F)c3)no2)ccc1-c1cccc(F)c1C [Example 91, N-(2-fluoro-4-{5-[3′-fluoro-2-(methoxymethyl)-2′-methylbiphenyl-4-yl]-1,2,4-oxadiazol-3-yl}benzyl)-N-methylglycine, hydrochloride salt] | 1.63e-10 | 2e-07 | 8.26 | 1.13e-09 | 3.35e-07
CCOc1cc(-c2nc(-c3ccc(CN(C)CC(=O)O)c(F)c3)no2)ccc1-c1ccccc1C [Example 92, N-{4-[5-(2-ethoxy-2′-methylbiphenyl-4-yl)-1,2,4-oxadiazol-3-yl]-2-fluorobenzyl}-N-methylglycine, hydrochloride salt] | 1.72e-10 | 9.91e-08 | 8.10 |  | 
COCc1cc(-c2nc(-c3cc(Cl)cc(CN(C)CC(=O)O)c3)no2)ccc1-c1ccccc1C [Example 93, N-(3-chloro-5-{5-[2-(methoxymethyl)-2′-methylbiphenyl-4-yl]-1,2,4-oxadiazol-3-yl}benzyl)-N-methylglycine, hydrochloride salt] | 3.96e-10 | 9.4e-08 | 7.58 |  | 
COCc1cc(-c2nc(-c3ccc(CN(C)CC(=O)O)cc3C)no2)ccc1-c1ccccc1C [Example 102, 2-((4-(5-(2-(methoxymethyl)-2′-methylbiphenyl-4-yl)-1,2,4-oxadiazol-3-yl)-3-methylbenzyl)(methyl)amino)acetic acid] |  | 2.9e-07 | 7.86 | 1.44e-09 | 6.99e-07
COCc1cc(-c2nc(-c3ccc(CNCC(=O)O)cc3C)no2)ccc1-c1ccccc1C [Example 106, 2-(4-(5-(2-(methoxymethyl)-2′-methylbiphenyl-4-yl)-1,2,4-oxadiazol-3-yl)-3-methylbenzylamino)acetic acid] |  | 1.59e-07 | 8.39 | 4.66e-10 | 2.96e-07
Cc1cc(CNCC(=O)O)ccc1-c1noc(-c2ccc(-c3ccccc3C)c(C(F)(F)F)c2)n1 [Example 107, 2-(3-methyl-4-(5-(2′-methyl-2-(trifluoromethyl)biphenyl-4-yl)-1,2,4-oxadiazol-3-yl)benzylamino)acetic acid] |  |  | 8.55 | 4.79e-10 | 2.12e-07
